According to patent publication US20230331739A1, “INDOLO HEPTAMYL OXIME ANALOG CRYSTAL AS PARP INHIBITOR AND METHOD FOR PREPARING SAME” (CHIA TAI TIANQING PHARMACEUTICAL GROUP CO., LTD., priority 2020, published 2023):

Experiments:
[1] = molecular target: CYP2D6 (Homo sapiens (Human), UniProt P10635); test: Inhibition against cytochrome P450 isoenzymes, CYP2D6; assay type: in vitro ADME; conditions: human liver microsomes
Description: The inhibition of the test compound against different subtypes of the human cytochrome P450 isoenzyme was determined. The test compound, a standard inhibitor (100×final concentration) and a mixed substrate working solution were prepared; the microsomes frozen in a refrigerator at −80° C. were taken out and thawed. […]

[2] = Metabolic stability in liver microsomes, mouse; assay type: in vitro ADME; conditions: 1 μM, 0.5 mg/mL
Description: Objective: To test the metabolic stability of the test compound in liver microsomes of three species.
Procedures: 1 μM test compound and microsomes (0.5 mg/mL) were incubated at 37° C. in the presence of an NADPH regeneration system. Positive controls were testosterone ([…]), propylamine propiophenone (2D6 substrate) and diclofenac (2C9 substrate). At 37° C., positive controls were incubated with microsomes (0.5 mg/mL) in the presence of an NADPH regeneration system. The reaction was stopped by direct mixing of the sample with cold acetonitrile containing an internal standard at various time points (0, 5, 10, 20, 30 and 60 min). The compound and microsomes were incubated for 60 min in the absence of an NADPH regeneration system. One replicate (n=1) was set at each time point. The samples were analyzed by LC/MS/MS; the concentration of the compound was characterized by the ratio of the analyte peak area to the internal standard peak area.

[3] = tested on: MDA-MB-436 cells with BRCA1 mutation; test: Anti-proliferation study on MDA-MB-436 cells (CellTiter-Glo); assay type: cell-based; conditions: Homo sapiens, MDA-MB-436, 168 h; 7 days incubation
Description: Materials: test compounds; RPMI-1640 medium; fetal bovine serum; penicillin/streptomycin antibiotic; MDA-MB-436 cells; Envision Multimode Plate Reader (PerkinElmer). MDA-MB-436 cells were seeded in a white 96-well plate by adding 80 μL of cell suspension (containing 3000 MDA-MB-436 cells) to each well. The cell plate was incubated in a CO2 incubator overnight. The test compounds were serially 5-fold diluted to the 8th concentration with a multichannel pipette, i.e., from 2 mM to 26 nM, in duplicate. 78 μL of medium was added to an intermediate plate, and the serially diluted compound was transferred to the intermediate plate at 2 μL per well. After being mixed well, the mixture was transferred to the cell plate at 20 μL per well. […] Another cell plate was provided for reading signal values on the day of compound addition and these signal values were used as Max values in data analysis. Promega CellTiter-Glo was added to the cell plate at 25 μL per well and the luminescence signals were stabilized by incubation for 10 min at room temperature. Readings were taken using a PerkinElmer Envision Multimode Plate Reader. […]

Sequence of CYP2D6 (P10635 whole entry): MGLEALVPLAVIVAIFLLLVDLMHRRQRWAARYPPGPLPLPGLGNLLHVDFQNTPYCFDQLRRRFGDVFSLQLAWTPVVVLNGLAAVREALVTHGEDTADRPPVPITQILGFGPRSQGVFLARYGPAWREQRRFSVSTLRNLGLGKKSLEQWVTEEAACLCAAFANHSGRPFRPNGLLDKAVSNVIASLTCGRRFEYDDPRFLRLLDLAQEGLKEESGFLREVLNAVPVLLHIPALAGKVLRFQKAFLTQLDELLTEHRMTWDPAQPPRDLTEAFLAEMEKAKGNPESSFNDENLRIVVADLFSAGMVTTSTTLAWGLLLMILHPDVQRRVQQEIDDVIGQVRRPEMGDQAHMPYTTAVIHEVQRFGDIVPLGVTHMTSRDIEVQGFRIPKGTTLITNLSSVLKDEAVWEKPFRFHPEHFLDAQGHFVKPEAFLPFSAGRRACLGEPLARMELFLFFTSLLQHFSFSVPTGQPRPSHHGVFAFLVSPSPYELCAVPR

## C[C@]1(c2ccc(-c3[nH]c4cc(F)cc5c4c3CONC5=O)cc2)CCCN1 [Compound 1]
[1]
  IC50: 11.6 µM
[2]
  Residual content after 60 min of incubation: 40.7%
[3]
  IC50: 0.0123 µM
